Measured values from the NIST ThermoML archive (doi:10.1016/j.tca.2010.02.008).

Test: excess molar enthalpy (molar enthalpy of mixing); xn = mol fraction of the nth substance listed
Conditions: 773.15 K, 101 kPa, Liquid, Calvet calorimetry

[In] [indium] + [Sn]
Conditions	excess molar enthalpy [kcal/mol]
x2 = 0.1	-0.0437
x2 = 0.1966	-0.0894
x2 = 0.2981	-0.104
x2 = 0.4041	-0.0915
x2 = 0.5002	-0.0791
x2 = 0.5005	-0.0755
x2 = 0.5949	-0.0719
x2 = 0.6901	-0.0576
x2 = 0.7891	-0.0394
x2 = 0.8975	-0.0208
